In US8367328B2, “Method for synthesizing DNA” (Takara Bio Inc., priority 1998, dated 2013):

Assays:
[1] = test system: TaKaRa EX-Taq DNA Polymerase; assay: LA-PCR with TaKaRa EX-Taq DNA Polymerase in the presence of acidic substances; type: biochemical; details: 10 kb fragment
Protocol: (1) The effects of the acidic substances were studied on LA-PCR method comprising a combination of DNA polymerase having 3′→5′ exonuclease activity, and DNA polymerase having no such activity. A reaction mixture comprising λDNA as a template, primers λ1 and λ8 as a primer pair was prepared, and PCR was carried out. In this PCR, TaKaRa EX-Taq DNA Polymerase (manufactured by Takara Shuzo Co., Ltd.) was used. The composition of the reaction mixture is as follows.
In the following example, PCR was carried out in Fast mode by using TaKaRa PCR Thermal Cycler Personal (manufactured by Takara Shuzo Co., Ltd.).
[…] Further, 1 ng of the sulfated-fucose-containing polysaccharide-F or 0.5 μg of sodium alginate was respectively added to the above reaction mixture.
[…] After the termination of the reaction, 5 μl of the resulting reaction mixture was subjected to electrophoresis on 1% agarose gel containing ethidium bromide in an amount of 0.00005%, whereby an amplified fragment was confirmed.
Further, PCR was carried out for a reaction having the same composition as the above reaction mixture except for using 100 pg of λDNA as template DNA, and adding 0.25 μg of sodium alginate or 1 ng of the sulfated-fucose-containing polysaccharide-F as an acidic substance.
The reaction was carried out in 29 cycles, wherein one cycle of reaction comprises a process consisting of 98° C., 5 seconds—68° C., 3 minutes. […]

[2] = test system: Pfu DNA Polymerase I and Pfu DNA Polymerase II; assay: PCR with Pfu DNA Polymerase I plus Pfu DNA Polymerase II in the presence of acidic substances; type: biochemical, Pyrococcus furiosus; details: commercially available sodium alginate, 100 to 1000 centipoises; Example 12 conditions
Protocol: Using λDNA as a template, and each of primers λ1 and λ3, primers λ1 and λ4, or primers λ1 and λ5 as a primer pair, the reaction mixture having the following composition was prepared.
Composition of Reaction Mixture: 10 mM Tris-hydrochloric acid (pH 9.2), 75 mM potassium chloride, 6 mM magnesium chloride, 0.4 mM each of dATP, dCTP, dGTP and dTTP, 0.01% BSA, 1.25 U of Pfu DNA Polymerase I and 1.25 U of Pfu DNA Polymerase II, 500 pg of λDNA, and 5 pmol each of the primers, 5 ng or 50 ng of sulfated-fucose-containing polysaccharide-F (a final volume being 25 μl). In addition, as a control, one without addition of sulfated-fucose-containing polysaccharide-F was prepared.
The reaction in 30 cycles was carried out for each of these reaction mixtures, wherein one cycle of reaction comprises a process consisting of 98° C., 0 seconds—68° C., 0 seconds. Thereafter, 5 μl of the resulting reaction mixture was subjected to electrophoresis on 1% agarose gel containing ethidium bromide in an amount of 0.00005%, whereby an amplified fragment was confirmed.
PCR was carried out by using in combination Pfu DNA Polymerase II obtained in Example 1 and Pfu DNA Polymerase I (manufactured by Stratagene), which is α-type DNA polymerase, and sodium alginate, which is an acidic substance.
A reaction mixture comprising λDNA as a template, primers λ1 and λ3 as a primer pair was prepared, and PCR was carried out. […]

Substance: sodium alginate
- Amplification Results ([1]; template DNA 10 pg, primers λ1/λ8, 27 cycles 98°C 5 s–68°C 3 min, amount added 0.5 μg): ++ (Intensive amplification being observed)
- Amplification Results ([1]; template DNA 100 pg, primers λ1/λ8, 29 cycles 98°C 5 s–68°C 3 min, amount added 0.25 μg): ++ (Intensive amplification being observed)
- Amplification efficiency for DNA synthesis, sodium alginate of each viscosity [2]: completely the same improvements
